Measurements published in patent publication US20210228562A1, “IRAK DEGRADERS AND USES THEREOF” (Kymera Therapeutics, Inc., priority 2019, published 2021).

Biological target: T1, IRAK4 (Homo sapiens, UniProt Q9NWZ3)
T1 construct: endogenous in cells; host or cells: OCI-LY10
T1 sequence (Q9NWZ3 1-460): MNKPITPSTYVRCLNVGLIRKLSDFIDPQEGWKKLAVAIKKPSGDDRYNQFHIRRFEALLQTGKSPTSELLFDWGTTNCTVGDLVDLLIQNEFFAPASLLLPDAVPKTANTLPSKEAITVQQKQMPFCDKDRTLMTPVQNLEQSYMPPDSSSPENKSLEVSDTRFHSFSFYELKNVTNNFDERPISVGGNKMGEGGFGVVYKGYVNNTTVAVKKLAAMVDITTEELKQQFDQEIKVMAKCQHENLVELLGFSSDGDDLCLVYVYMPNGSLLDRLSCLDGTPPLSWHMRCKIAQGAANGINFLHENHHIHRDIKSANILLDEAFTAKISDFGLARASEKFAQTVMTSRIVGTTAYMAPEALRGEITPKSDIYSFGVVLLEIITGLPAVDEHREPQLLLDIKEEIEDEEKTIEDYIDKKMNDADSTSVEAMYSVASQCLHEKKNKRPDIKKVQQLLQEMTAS
Experiment: IRAK4 MSD Degradation in OCI-LY10
Type: cell-based
Details: OCI-LY10 cells, 24 hrs incubation; read-out: IRAK4 degradation in OCI-LY10 at 24 hrs: DC50
Protocol: Degradation of IRAK4 in OCI-LY10 was quantitatively measured using Meso Scale Discovery technology. OCI-LY10 cells were seeded in 96-well plates (Corning 3799) with a density of 300,000 cells per well in 100 μL fresh media. Compounds were then added to the assay plates with a final top concentration of 1 to 10 μM in a 1:3 dilution series with total of 8 doses. The assay plates were then incubated for 4 to 24 hours at 37° C. under 5% CO2. The assay plates were then centrifuged for 5 minutes and the cell pellets were treated with 100 μL/well RIPA lysis buffer (Boston BioProducts BP-115D) with proteinase inhibitors. To prepare MSD assay plates (Meso Scale Discovery Catalog number L15XA-3), the plates were coated with 2 μg/mL capture antibody (mouse Anti-IRAK4 antibody [2H9], ab119942) in PBS, at 40 μL/well. The plates were then incubated overnight at 4° C., washed 3 times with 150 μL/well TBST buffer (Cell Signaling Technology, Catalog number 9997S) and blocked with 150 μL/well blocking buffer (Meso Scale Discovery Catalog number R93BA-4). Cell lysates were then added to MSD assay plates and the plates were incubated at room temperature for 1 hour. The plates were then washed 3 times with 150 μL/well TBST buffer and 25 μL/well primary detection antibody (rabbit Anti-IRAK4 antibody [Y279], from Abcam. Catalog number ab32511, 1 μg/mL). The assay plates were then incubated at room temperature for 1 hour, washed 3 times with 150 μL/well TBST buffer and 25 μL/well secondary detection antibody, SULFO-TAG anti-rabbit antibody were added (anti rabbit antibody from Meso Scale Discovery, Catalog number R32AB-1, 1 μg/mL). The assay plates were then incubated at room temperature for 1 hour, washed 3 times with 150 μL/well TBST buffer, and 150 μL/well MSD reading buffer (Meso Scale Discovery catalog number R92TC-2) was added. The plates were then analyzed by a MSD reader (Meso Scale Discovery, Model Quick Plex SQ 120). The data was then analyzed by software Prism 7.0 from GraphPad and the dose-depended IRAK4 degradation were fit using a three-parameter logistic equation to calculate DC50.

Row | Compound | DC50 [nM]
1 | CN(C[C@H]1CC[C@H](c2nc3cc(C(C)(C)O)c(NC(=O)c4cccc(C(F)(F)F)n4)cc3s2)CC1)[C@H]1CC[C@@H](CCNc2cccc3c2C(=O)N(C2CCC(=O)NC2=O)C3=O)CC1 (stereo partly shown) [I-46] | 50 to 100
2 | CC(C)(O)c1cc2nc([C@H]3CC[C@H](CN4CC5(CC(CCNc6cccc7c6C(=O)N(C6CCC(=O)NC6=O)C7=O)C5)C4)CC3)sc2cc1NC(=O)c1cccc(C(F)F)n1 (stereo partly shown) [I-47] | < 50
3 | CN(C[C@H]1CC[C@H](c2nc3cc(C(C)(C)O)c(NC(=O)c4cccc(C(F)(F)F)n4)cc3s2)CC1)[C@H]1CC[C@@H](CNc2cccc3c2C(=O)N(C2CCC(=O)NC2=O)C3=O)CC1 (stereo partly shown) [I-48] | > 1000
4 | CC1(C)OC2(C)c3ccccc3CCN2c2cc3sc([C@H]4CC[C@H](CN5CC6(CC(CCNc7cccc8c7C(=O)N(C7CCC(=O)NC7=O)C8=O)C6)C5)CC4)nc3cc21 (stereo partly shown) [I-49] | > 1000

Test system: OCI-LY10 cells
Experiment: CTG Cell Viability Assay - OCI-LY10
Type: cell-based
Details: Homo sapiens, 96 h, CellTiter-Glo, 4 days incubation
Protocol: Compound-mediated viability effect on OCI-LY10 or SUDHL-2 was quantitatively determined using the CellTiter-Glo® Luminescent Cell Viability Assay kit from Promega (Catalog number G7570) following manufacturer's recommended procedures. Briefly, OCI-LY10 or SUDHL-2 cells were seeded into 384 well plates (Grenier Bio-One, Catalog number 781080) with a density of 10,000 cells per well. Compounds were then added to the assay plate with final top concentration of 10 μM and 1:3 dilution series with total of 9 doses. The final DMSO concentration was normalized to 0.2%. The assay plates were incubated at 37° C. for 4 days under 5% CO2. Then the assay plate was equilibrated at room temperature for 10 minutes. To determine cell viability, 30 μL CellTiter Glo reagent was added to each well and the assay plate was centrifuged at 1000 rpm for 30 second, incubated at room temperature for 10 min, and analyzed by detecting the luminescence using a multimode plate reader (EnVision 2105, PerkinElmer). The data was then analyzed by software Prism 7.0 from GraphPad and the dose response curves were fit using a three-parameter logistic equation to calculate IC50.

Row | Compound | IC50 [nM]
5 | CN(C[C@H]1CC[C@H](c2nc3cc(C(C)(C)O)c(NC(=O)c4cccc(C(F)(F)F)n4)cc3s2)CC1)[C@H]1CC[C@@H](CCNc2cccc3c2C(=O)N(C2CCC(=O)NC2=O)C3=O)CC1 (stereo partly shown) [I-46] | < 50
6 | CC(C)(O)c1cc2nc([C@H]3CC[C@H](CN4CC5(CC(CCNc6cccc7c6C(=O)N(C6CCC(=O)NC6=O)C7=O)C5)C4)CC3)sc2cc1NC(=O)c1cccc(C(F)F)n1 (stereo partly shown) [I-47] | < 50
7 | CN(C[C@H]1CC[C@H](c2nc3cc(C(C)(C)O)c(NC(=O)c4cccc(C(F)(F)F)n4)cc3s2)CC1)[C@H]1CC[C@@H](CNc2cccc3c2C(=O)N(C2CCC(=O)NC2=O)C3=O)CC1 (stereo partly shown) [I-48] | 50 to 100
8 | CC1(C)OC2(C)c3ccccc3CCN2c2cc3sc([C@H]4CC[C@H](CN5CC6(CC(CCNc7cccc8c7C(=O)N(C7CCC(=O)NC7=O)C8=O)C6)C5)CC4)nc3cc21 (stereo partly shown) [I-49] | 50 to 100

Biological target: T2, Ikaros (protein product of gene IKZF1) (Homo sapiens, UniProt Q13422+Q96SW2)
T2 construct: endogenous in cells; host or cells: OCI-LY10
T2 sequence (Q13422 whole entry): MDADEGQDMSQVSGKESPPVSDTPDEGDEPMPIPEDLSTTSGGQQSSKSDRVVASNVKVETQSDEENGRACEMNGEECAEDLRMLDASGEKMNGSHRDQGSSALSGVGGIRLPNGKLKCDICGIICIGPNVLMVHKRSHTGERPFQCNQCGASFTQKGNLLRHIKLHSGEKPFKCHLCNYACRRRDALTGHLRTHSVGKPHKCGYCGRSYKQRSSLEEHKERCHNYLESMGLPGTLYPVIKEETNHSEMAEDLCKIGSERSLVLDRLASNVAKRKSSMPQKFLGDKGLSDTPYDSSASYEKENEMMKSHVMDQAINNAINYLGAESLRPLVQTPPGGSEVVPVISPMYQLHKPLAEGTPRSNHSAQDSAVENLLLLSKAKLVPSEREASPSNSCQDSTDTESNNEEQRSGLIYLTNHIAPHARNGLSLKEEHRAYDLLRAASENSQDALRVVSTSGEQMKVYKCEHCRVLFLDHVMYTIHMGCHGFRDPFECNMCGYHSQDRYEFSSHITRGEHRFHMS
T2 sequence (Q96SW2 whole entry): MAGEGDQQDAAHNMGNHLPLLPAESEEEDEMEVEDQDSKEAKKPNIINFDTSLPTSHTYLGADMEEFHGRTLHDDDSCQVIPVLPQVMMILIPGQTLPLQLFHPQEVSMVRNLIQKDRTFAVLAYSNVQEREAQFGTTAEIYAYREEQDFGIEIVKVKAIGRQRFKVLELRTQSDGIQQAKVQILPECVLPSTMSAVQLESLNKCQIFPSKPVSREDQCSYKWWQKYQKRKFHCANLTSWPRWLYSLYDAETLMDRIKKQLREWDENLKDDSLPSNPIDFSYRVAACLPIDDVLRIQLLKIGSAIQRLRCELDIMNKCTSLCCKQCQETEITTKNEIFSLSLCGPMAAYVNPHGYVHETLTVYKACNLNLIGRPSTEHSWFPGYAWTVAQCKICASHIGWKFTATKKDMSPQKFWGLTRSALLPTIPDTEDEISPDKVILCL
T2 sequence (Q16531 whole entry partner): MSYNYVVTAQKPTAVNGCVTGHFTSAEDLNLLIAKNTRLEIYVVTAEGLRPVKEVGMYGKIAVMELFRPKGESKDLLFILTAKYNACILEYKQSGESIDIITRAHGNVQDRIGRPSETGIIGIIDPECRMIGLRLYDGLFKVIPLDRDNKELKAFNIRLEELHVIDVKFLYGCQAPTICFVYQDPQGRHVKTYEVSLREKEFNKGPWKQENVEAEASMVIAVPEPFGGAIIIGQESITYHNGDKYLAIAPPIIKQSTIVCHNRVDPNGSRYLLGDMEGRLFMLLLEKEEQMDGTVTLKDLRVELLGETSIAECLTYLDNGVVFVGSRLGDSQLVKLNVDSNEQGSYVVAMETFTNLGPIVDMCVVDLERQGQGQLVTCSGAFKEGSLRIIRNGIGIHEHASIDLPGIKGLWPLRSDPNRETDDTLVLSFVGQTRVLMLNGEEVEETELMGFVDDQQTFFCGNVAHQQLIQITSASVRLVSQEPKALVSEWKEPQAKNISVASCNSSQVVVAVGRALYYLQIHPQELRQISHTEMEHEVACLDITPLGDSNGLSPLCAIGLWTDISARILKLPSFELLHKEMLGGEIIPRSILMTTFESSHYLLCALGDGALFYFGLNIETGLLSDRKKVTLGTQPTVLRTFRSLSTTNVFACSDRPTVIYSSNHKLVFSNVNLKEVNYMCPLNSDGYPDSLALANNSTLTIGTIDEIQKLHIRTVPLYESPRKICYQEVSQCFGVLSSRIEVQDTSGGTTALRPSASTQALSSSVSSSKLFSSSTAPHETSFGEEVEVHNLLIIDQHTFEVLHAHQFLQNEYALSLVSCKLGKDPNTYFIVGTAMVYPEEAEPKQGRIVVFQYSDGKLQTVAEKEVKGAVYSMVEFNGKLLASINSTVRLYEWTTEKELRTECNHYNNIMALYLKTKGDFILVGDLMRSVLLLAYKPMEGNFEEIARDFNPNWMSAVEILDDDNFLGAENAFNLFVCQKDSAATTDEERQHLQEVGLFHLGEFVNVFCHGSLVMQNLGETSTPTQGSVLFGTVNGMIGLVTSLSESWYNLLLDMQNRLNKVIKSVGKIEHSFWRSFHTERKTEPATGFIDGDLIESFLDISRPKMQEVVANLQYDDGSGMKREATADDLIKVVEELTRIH
Experiment: Quantification of Ikaros degradation in OCI-LY10 cells (quantitative immunoblotting)
Type: cell-based
Details: 6 h treatment
Protocol: (§1) Degradation of Ikaros (protein product of gene IKZF1) and Aiolos (protein product of gene IKZF3) were determined by quantitative immunoblotting as follows. OCI-LY10 cells, 2×10^6 cells/well, were treated with listed concentrations of IRAK4 degraders or control compounds in 6 well plates for 6 h. Cells were collected, washed with cold PBS, lysed in RIPA buffer (Boston BioProducts BP-115D) with protease/phosphatase inhibitor cocktail (Roche 05892791001/Roche 04906837001) and centrifuged at 13000 RPM for 20 min to precipitate insoluble material. The supernatant fraction was diluted in SDS-PAGE loading buffer (Beyotime Bio P0015) and 20 μL of each sample was resolved on 4-12% Bis-Tris SDS-PAGE gels (Novex, WG1402BOX). Resolved samples were transferred to nitrocellulose membranes by wet electro-transfer method at 250 mV for 1.5 h. The membrane was blocked with LICOR blocking buffer (LI-COR, 927-50000) for 1 hour, washed three times with TBST (CST #99975) for 5 minutes each and incubated with primary antibody prepared in block buffer with 0.1% Tween-20 (Solarbio, P8220) at 4° C. overnight. Ikaros antibody was rabbit monoclonal D6N9Y (CST #14859), at 1:1000 dilution. Aiolos antibody was rabbit monoclonal D1C1E (CST #15103), at 1:1000 dilution. Signal was normalized to mouse anti-beta-Actin monoclonal 8H10D10 (CST #3700) used at 1:10,000 dilution. After incubation in primary antibodies, membranes were washed three times with TBST, 5 minutes each, incubated with fluorescently labeled secondary antibodies anti-rabbit IgG (Licor, 926-32211) at 1:5000 dilution; anti-mouse IgG (LI-COR, 926-68070) at 1:5000 dilution, for 1 hour at RT. After incubation in secondary, membranes were washed three times with TBST, 5 minutes each and read on LICOR Odyssey imager. Data was reported as signal for Ikaros or Aiolos relative to signal for actin, and normalized to DMSO-treated control.

Row | Compound | DC50 [nM]
9 | CN(C[C@H]1CC[C@H](c2nc3cc(C(C)(C)O)c(NC(=O)c4cccc(C(F)(F)F)n4)cc3s2)CC1)[C@H]1CC[C@@H](CCNc2cccc3c2C(=O)N(C2CCC(=O)NC2=O)C3=O)CC1 (stereo partly shown) [I-46] | < 50
10 | CC(C)(O)c1cc2nc([C@H]3CC[C@H](CN4CC5(CC(CCNc6cccc7c6C(=O)N(C6CCC(=O)NC6=O)C7=O)C5)C4)CC3)sc2cc1NC(=O)c1cccc(C(F)F)n1 (stereo partly shown) [I-47] | < 50
11 | CN(C[C@H]1CC[C@H](c2nc3cc(C(C)(C)O)c(NC(=O)c4cccc(C(F)(F)F)n4)cc3s2)CC1)[C@H]1CC[C@@H](CNc2cccc3c2C(=O)N(C2CCC(=O)NC2=O)C3=O)CC1 (stereo partly shown) [I-48] | < 50
12 | CC1(C)OC2(C)c3ccccc3CCN2c2cc3sc([C@H]4CC[C@H](CN5CC6(CC(CCNc7cccc8c7C(=O)N(C7CCC(=O)NC7=O)C8=O)C6)C5)CC4)nc3cc21 (stereo partly shown) [I-49] | < 50

Biological target: T3, Aiolos (protein product of gene IKZF3) (Homo sapiens, UniProt Q96SW2+Q9UKT9)
T3 construct: endogenous in cells; host or cells: OCI-LY10
T3 sequence (Q9UKT9 whole entry): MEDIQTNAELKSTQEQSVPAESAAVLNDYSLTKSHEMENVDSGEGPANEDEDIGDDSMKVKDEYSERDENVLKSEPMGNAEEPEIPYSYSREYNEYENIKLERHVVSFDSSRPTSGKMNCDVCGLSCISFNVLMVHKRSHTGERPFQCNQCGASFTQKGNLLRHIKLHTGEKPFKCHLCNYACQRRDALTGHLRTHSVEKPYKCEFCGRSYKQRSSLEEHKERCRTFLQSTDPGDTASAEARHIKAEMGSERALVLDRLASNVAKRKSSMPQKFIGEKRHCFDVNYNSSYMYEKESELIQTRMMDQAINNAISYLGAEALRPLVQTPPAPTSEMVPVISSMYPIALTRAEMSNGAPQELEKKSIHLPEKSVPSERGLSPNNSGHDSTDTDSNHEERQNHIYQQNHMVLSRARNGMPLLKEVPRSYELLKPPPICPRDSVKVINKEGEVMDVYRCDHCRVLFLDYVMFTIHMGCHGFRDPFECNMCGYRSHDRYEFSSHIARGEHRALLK
T3 sequence (Q96SW2 whole entry): as the sequence (Q96SW2 whole entry) above
T3 sequence (Q16531 whole entry partner): as the sequence (Q16531 whole entry partner) above
Experiment: Quantification of Aiolos degradation in OCI-LY10 cells (quantitative immunoblotting)
Type: cell-based
Details: 6 h treatment
Protocol: as §1

Row | Compound | DC50 [nM]
13 | CN(C[C@H]1CC[C@H](c2nc3cc(C(C)(C)O)c(NC(=O)c4cccc(C(F)(F)F)n4)cc3s2)CC1)[C@H]1CC[C@@H](CCNc2cccc3c2C(=O)N(C2CCC(=O)NC2=O)C3=O)CC1 (stereo partly shown) [I-46] | < 50
14 | CC(C)(O)c1cc2nc([C@H]3CC[C@H](CN4CC5(CC(CCNc6cccc7c6C(=O)N(C6CCC(=O)NC6=O)C7=O)C5)C4)CC3)sc2cc1NC(=O)c1cccc(C(F)F)n1 (stereo partly shown) [I-47] | < 50
15 | CN(C[C@H]1CC[C@H](c2nc3cc(C(C)(C)O)c(NC(=O)c4cccc(C(F)(F)F)n4)cc3s2)CC1)[C@H]1CC[C@@H](CNc2cccc3c2C(=O)N(C2CCC(=O)NC2=O)C3=O)CC1 (stereo partly shown) [I-48] | < 50
16 | CC1(C)OC2(C)c3ccccc3CCN2c2cc3sc([C@H]4CC[C@H](CN5CC6(CC(CCNc7cccc8c7C(=O)N(C7CCC(=O)NC7=O)C8=O)C6)C5)CC4)nc3cc21 (stereo partly shown) [I-49] | < 50
